One data set relates to weeds. To be noted: Harvey 1931; cited from earlier work.
In the next data set the test system is cotton. Conditions: solutions sprayed directly on vegetative growth (Harvey 1931); cited from earlier work.
The test system of the next data set is wheat. Conditions: effect no longer observed at 69 days post application (Bissey and Butler 1934); cited from earlier work.
Data set [1] can be described thus: Stability of 4-hydroxybenzyl isothiocyanate in buffered aqueous solutions (citrate buffers). Conditions: citrate buffer. Format: physicochemical. As for the experimental part:
Stability of 4-Hydroxybenzyl Isothiocyanate in Buffered Media. Partially purified 4-hydroxybenzyl isothiocyanate was prepared by suspending 500 grams of S. alba seed meal in 2 liters of deionized water and extracting the mixture with 500 milliliters of ethyl acetate for 24 hours. The ethyl acetate extract was separated by decanting the top organic layer after centrifugation, dried with 100 g of anhydrous sodium sulfate over night, and concentrated under vacuum at laboratory temperature. The crude 4-hydroxybenzyl isothiocyanate extract was further purified by preparative column chromatography on silica gel (500 grams). […] Content of 4-hydroxybenzyl isothiocyanate within the fractions was verified by GC-MS using instrumentation and conditions as described previously. Fractions containing 4-hydroxybenzyl isothiocyanate were combined and concentrated under vacuum at laboratory temperature producing a yellowish, viscous fluid displaying only 4-hydroxybenzyl isothiocyanate and pentane/methylene chloride solvent peaks in the GC chromatogram. No further concentration of 4-hydroxybenzyl isothiocyanate was achieved using vacuum distillation because of its instability.
The pH stability of 4-hydroxybenzyl isothiocyanate was analyzed by incubating 25 μL of partially purified extract dissolved in 25 milliliters of eight different buffers with pH values ranging from 3.0 to 6.5 (FIG. 7). 0.1 M buffers were used, and were prepared by mixing 0.2 M sodium citrate and citric acid solutions in pre-calculated ratios ranging from 4 milliliters sodium citrate and 46 milliliters citric acid to 41 milliliters sodium citrate and 9 milliliters citric acid in a total volume of […]. Actual pH values of the buffers of 3.03, 3.52, 4.02, 4.49, 5.00, 5.46, 5.91, and 6.52 were verified using an Orion model 420A pH meter (Orion Research, Boston). At specific times during the incubation a 1-milliliter sample was withdrawn from the buffered reaction solution with a syringe and injected into a Waters Integrity HPLC system (2695 separation module, 996 PDA, and TMD) equipped with a 150×2 mm i.d., 5 μm Aqua C-18 column (Phenomenex). The instrument was operated at a constant flow rate of 200 μL/min with a gradient from 5 to 35% of methanol during each 30-minute run. Half-lives for 4 hydroxybenzyl isothiocyanate were estimated from straight lines obtained by plotting the natural logarithm of the normalized concentration versus time (FIG. 7). This experiment was repeated twice with two different meal extracts acquired by the same procedures from the same seed material. Half-lives from only one of the experiments are reported since the results for both experiments were similar.

Data set [2] can be described thus: pH stability of 4-OH benzyl ITC in 5 buffer solutions. The data set is classed as physicochemical. Here is the method:
The pH stability of 4-OH benzyl ITC was assayed by incubating it in 5 buffer solutions (sodium acetate/acetic acid from pH range 3 to 5 and monosodium phosphate/phosphatic acid for pH above 5) with pHs ranging from 3.0 to 7.0. At specific times during the incubation a sample from the incubated solution was withdrawn with a syringe and injected into an HPLC-PDA (Waters Integrity system, separation module 2695, photodiode array detector 996, column Phenomenex Aqua C-18, 5 μm, 150×2 mm, with a constant flow rate of 200 μl/minute gradient from 5 to 35% of methanol in 30 minutes). The amount of 4-OH benzyl ITC was determined using calibration with benzyl ITC.

The structures appear in SMILES notation.

The half-life is the time in which the quantity being followed falls by half. A lower half-life goes with fast loss.

For `N#CS` [SCN^−, ionic thiocyanate], in the data set with weeds, the “rate necessary for complete plant kill for 4 months” value is listed as 1,366 kg SCN^−/ha and the “rate removing a large percentage of the weeds” value is on record as 137 kilograms/SCN^− ha. Besides, the “rate at which cotton defoliation was possible” value in the data set with cotton was 8.6 kilograms SCN^−/ha. In addition, the “application rate causing inhibition of wheat germination” value in the data set with wheat is reported as 342 kilograms SCN^−/ha.

Turning to `Oc1ccc(CN=C=S)cc1` [4-hydroxybenzyl isothiocyanate], the half-life in data set [1] (pH 3.0 buffer) stood at 5.35 h; in data set [1] (pH 3.5 buffer), 5.2 h; in data set [1] (pH 4.0 buffer), 4.5 h; in data set [1] (pH 4.5 buffer), 3.25 h; in data set [1] (pH 5.0 buffer) it was 1.67 h; in data set [1] (pH 5.5 buffer), 0.817 h. Besides, the half-life in data set [1] (pH 6.0 buffer) was 0.267 h; in data set [1] (pH 6.5 buffer) it was 0.1 h; in data set [2] (sodium acetate/acetic acid buffer, pH 3.0), 3.6 h. Besides, the “Half Life” value in data set [2] (pH 3) stood at 3.6 h; in data set [2] (pH 4), 2.1 h; in data set [2] (pH 5), 1.5 h; in data set [2] (pH 6) it was 0.1 h; in data set [2] (pH 7, listed as isothiocyanate precursor) it was 0.08 h.
